Assay results: PubChem BioAssay AID256 (DTP/NCI, 2004)
Where “and” joins values, the source holds several entries; their conditions need not be identical. Equal values may be shown once. Toxic doses and inconclusive results are not listed.

Tested on: CD2F1 mice, L1210 leukemia ip, survival T/C
Experiment: NCI In Vivo Anticancer Drug Screen. Data for tumor model L1210 Leukemia (intraperitoneal) in CD2F1 (CDF1) mice
Settings: higher = longer survival
How it was run: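 Antitumor effect is scored in animals hosting a serially transplanted tumor. Values compare compound-dosed animals against vehicle-only controls as a simple quotient.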

[1] = endpoint: mean survival time, dose: 200.0 mg/kg/injection, schedule: Q04DX003 (ip), vehicle: saline with Tween-80
[2] = endpoint: mean survival time, dose: 400.0 mg/kg/injection, schedule: Q04DX003 (ip), vehicle: saline with Tween-80

## O=C1c2c(O)ccc(O)c2C(=O)c2c(NCCNCCO)ccc(NCCNCCO)c21
endpoint: mean survival time, dose: 0.13 mg/kg/injection, schedule: Q01DX005 (iv), vehicle: acid diluted with saline
  T/C: 104 % of control
endpoint: mean survival time, dose: 0.13 mg/kg/injection, schedule: Q01DX005 (iv), vehicle: clinical formulation
  T/C: 109 % of control
endpoint: mean survival time, dose: 0.13 mg/kg/injection, schedule: Q01DX009 (ip), vehicle: clinical formulation
  T/C: 276 % of control and 165 % of control
endpoint: mean survival time, dose: 0.19 mg/kg/injection, schedule: Q01DX009 (ip), vehicle: saline
  T/C: 161 % of control and 195 % of control
endpoint: mean survival time, dose: 0.25 mg/kg/injection, schedule: Q01DX005 (iv), vehicle: acid diluted with saline
  T/C: 110 % of control
endpoint: mean survival time, dose: 0.25 mg/kg/injection, schedule: Q01DX005 (iv), vehicle: saline
  T/C: 117 % of control
endpoint: mean survival time, dose: 0.25 mg/kg/injection, schedule: Q01DX009 (ip), vehicle: acid diluted with saline
  T/C: 170 % of control and 196 % of control
endpoint: mean survival time, dose: 0.25 mg/kg/injection, schedule: Q01DX009 (ip), vehicle: clinical formulation
  T/C: 404 % of control and 223 % of control
endpoint: mean survival time, dose: 0.38 mg/kg/injection, schedule: Q01DX009 (ip), vehicle: saline
  T/C: 182 % of control and 193 % of control
endpoint: mean survival time, dose: 0.5 mg/kg/injection, schedule: Q01DX005 (iv), vehicle: acid diluted with saline
  T/C: 153 % of control
endpoint: mean survival time, dose: 0.5 mg/kg/injection, schedule: Q01DX005 (iv), vehicle: clinical formulation
  T/C: 163 % of control and 159 % of control
endpoint: mean survival time, dose: 0.5 mg/kg/injection, schedule: Q01DX005 (iv), vehicle: saline
  T/C: 152 % of control
endpoint: mean survival time, dose: 0.5 mg/kg/injection, schedule: Q01DX005 (oral), vehicle: acid diluted with saline
  T/C: 102 % of control and 107 % of control
endpoint: mean survival time, dose: 0.5 mg/kg/injection, schedule: Q01DX009 (ip), vehicle: acid diluted with saline
  T/C: 150 % of control and 171 % of control and 328 % of control
endpoint: mean survival time, dose: 0.5 mg/kg/injection, schedule: Q01DX009 (ip), vehicle: clinical formulation
  T/C: 228 % of control
endpoint: mean survival time, dose: 1.0 mg/kg/injection, schedule: Q01DX005 (ip), vehicle: acid diluted with saline
  T/C: 163 % of control
endpoint: mean survival time, dose: 1.0 mg/kg/injection, schedule: Q01DX005 (iv), vehicle: acid diluted with saline
  T/C: 157 % of control and 170 % of control
endpoint: mean survival time, dose: 1.0 mg/kg/injection, schedule: Q01DX005 (iv), vehicle: clinical formulation
  T/C: 324 % of control
endpoint: mean survival time, dose: 1.0 mg/kg/injection, schedule: Q01DX005 (iv), vehicle: saline
  T/C: 180 % of control
endpoint: mean survival time, dose: 1.0 mg/kg/injection, schedule: Q01DX005 (oral), vehicle: acid diluted with saline
  T/C: 101 % of control
endpoint: mean survival time, dose: 1.0 mg/kg/injection, schedule: Q01DX009 (ip), vehicle: acid diluted with saline
  T/C: 168 % of control and 274 % of control and 307 % of control
endpoint: mean survival time, dose: 1.0 mg/kg/injection, schedule: Q01DX009 (ip), vehicle: clinical formulation
  T/C: 494 % of control
endpoint: mean survival time, dose: 1.0 mg/kg/injection, schedule: Q04DX003 (iv), vehicle: acid diluted with saline
  T/C: 151 % of control
endpoint: mean survival time, dose: 2.0 mg/kg/injection, schedule: Q01DX005 (ip), vehicle: acid diluted with saline
  T/C: 198 % of control
endpoint: mean survival time, dose: 2.0 mg/kg/injection, schedule: Q01DX005 (iv), vehicle: acid diluted with saline
  T/C: 168 % of control and 409 % of control
endpoint: mean survival time, dose: 2.0 mg/kg/injection, schedule: Q01DX005 (iv), vehicle: clinical formulation
  T/C: 171 % of control
endpoint: mean survival time, dose: 2.0 mg/kg/injection, schedule: Q01DX005 (iv), vehicle: saline
  T/C: 173 % of control
endpoint: mean survival time, dose: 2.0 mg/kg/injection, schedule: Q01DX005 (oral), vehicle: acid diluted with saline
  T/C: 102 % of control and 109 % of control
endpoint: mean survival time, dose: 2.0 mg/kg/injection, schedule: Q01DX009 (ip), vehicle: acid diluted with saline
  T/C: 246 % of control and 354 % of control
endpoint: mean survival time, dose: 2.0 mg/kg/injection, schedule: Q01DX009 (ip), vehicle: clinical formulation
  T/C: 190 % of control
endpoint: mean survival time, dose: 2.0 mg/kg/injection, schedule: Q04DX003 (ip), vehicle: acid diluted with saline
  T/C: 167 % of control and 223 % of control
endpoint: mean survival time, dose: 2.0 mg/kg/injection, schedule: Q04DX003 (iv), vehicle: acid diluted with saline
  T/C: 189 % of control
endpoint: mean survival time, dose: 3.89 mg/kg/injection, schedule: Q01DX001 (ip), vehicle: acid diluted with saline
  T/C: 190 % of control and 221 % of control
endpoint: mean survival time, dose: 3.89 mg/kg/injection, schedule: Q01DX001 (iv), vehicle: acid diluted with saline
  T/C: 163 % of control and 173 % of control
endpoint: mean survival time, dose: 4.0 mg/kg/injection, schedule: Q01DX005 (ip), vehicle: acid diluted with saline
  T/C: 256 % of control
endpoint: mean survival time, dose: 4.0 mg/kg/injection, schedule: Q01DX005 (iv), vehicle: acid diluted with saline
  T/C: 90 % of control
endpoint: mean survival time, dose: 4.0 mg/kg/injection, schedule: Q01DX005 (oral), vehicle: acid diluted with saline
  T/C: 102 % of control and 107 % of control
endpoint: mean survival time, dose: 4.0 mg/kg/injection, schedule: Q01DX009 (ip), vehicle: acid diluted with saline
  T/C: 118 % of control and 101 % of control and 102 % of control
endpoint: mean survival time, dose: 4.0 mg/kg/injection, schedule: Q04DX003 (ip), vehicle: acid diluted with saline
  T/C: 211 % of control and 230 % of control
endpoint: mean survival time, dose: 4.0 mg/kg/injection, schedule: Q04DX003 (iv), vehicle: acid diluted with saline
  T/C: 260 % of control
endpoint: mean survival time, dose: 6.48 mg/kg/injection, schedule: Q01DX001 (ip), vehicle: acid diluted with saline
  T/C: 248 % of control and 328 % of control
endpoint: mean survival time, dose: 6.48 mg/kg/injection, schedule: Q01DX001 (iv), vehicle: acid diluted with saline
  T/C: 180 % of control and 181 % of control
endpoint: mean survival time, dose: 8.0 mg/kg/injection, schedule: Q01DX005 (ip), vehicle: acid diluted with saline
  T/C: 98 % of control
endpoint: mean survival time, dose: 8.0 mg/kg/injection, schedule: Q01DX005 (oral), vehicle: acid diluted with saline
  T/C: 100 % of control and 107 % of control
endpoint: mean survival time, dose: 8.0 mg/kg/injection, schedule: Q04DX003 (ip), vehicle: acid diluted with saline
  T/C: 320 % of control
endpoint: mean survival time, dose: 8.0 mg/kg/injection, schedule: Q04DX003 (iv), vehicle: acid diluted with saline
  T/C: 163 % of control
endpoint: mean survival time, dose: 10.8 mg/kg/injection, schedule: Q01DX001 (ip), vehicle: acid diluted with saline
  T/C: 207 % of control and 309 % of control
endpoint: mean survival time, dose: 10.8 mg/kg/injection, schedule: Q01DX001 (iv), vehicle: acid diluted with saline
  T/C: 233 % of control and 261 % of control
endpoint: mean survival time, dose: 16.0 mg/kg/injection, schedule: Q01DX005 (oral), vehicle: acid diluted with saline
  T/C: 93 % of control and 109 % of control
endpoint: mean survival time, dose: 16.0 mg/kg/injection, schedule: Q04DX003 (iv), vehicle: acid diluted with saline
  T/C: 110 % of control
endpoint: mean survival time, dose: 18.0 mg/kg/injection, schedule: Q01DX001 (ip), vehicle: acid diluted with saline
  T/C: 191 % of control and 344 % of control
endpoint: mean survival time, dose: 18.0 mg/kg/injection, schedule: Q01DX001 (iv), vehicle: acid diluted with saline
  T/C: 308 % of control and 344 % of control
endpoint: mean survival time, dose: 30.0 mg/kg/injection, schedule: Q01DX001 (ip), vehicle: acid diluted with saline
  T/C: 289 % of control
endpoint: mean survival time, dose: 30.0 mg/kg/injection, schedule: Q01DX001 (iv), vehicle: acid diluted with saline
  T/C: 156 % of control
endpoint: median survival time, dose: 0.25 mg/kg/injection, schedule: Q01DX009 (ip), vehicle: acid diluted with saline
  T/C: 172 % of control
endpoint: median survival time, dose: 0.5 mg/kg/injection, schedule: Q01DX009 (ip), vehicle: acid diluted with saline
  T/C: 170 % of control and 197 % of control
endpoint: median survival time, dose: 1.0 mg/kg/injection, schedule: Q01DX009 (ip), vehicle: acid diluted with saline
  T/C: 179 % of control and 182 % of control
endpoint: median survival time, dose: 1.08 mg/kg/injection, schedule: Q04DX003 (ip), vehicle: saline
  T/C: 151 % of control
endpoint: median survival time, dose: 1.8 mg/kg/injection, schedule: Q04DX003 (ip), vehicle: saline
  T/C: 175 % of control
endpoint: median survival time, dose: 2.0 mg/kg/injection, schedule: Q01DX009 (ip), vehicle: acid diluted with saline
  T/C: 219 % of control and 370 % of control
endpoint: median survival time, dose: 2.16 mg/kg/injection, schedule: Q01DX001 (iv), vehicle: saline
  T/C: 170 % of control
endpoint: median survival time, dose: 3.6 mg/kg/injection, schedule: Q01DX001 (iv), vehicle: saline
  T/C: 170 % of control
endpoint: median survival time, dose: 5.0 mg/kg/injection, schedule: Q04DX003 (ip), vehicle: saline
  T/C: 208 % of control
endpoint: median survival time, dose: 6.0 mg/kg/injection, schedule: Q01DX001 (iv), vehicle: saline
  T/C: 196 % of control

## Oc1c(Cl)cc(Cl)cc1C=NCC1CCC(CN=Cc2cc(Cl)cc(Cl)c2O)CC1 (stereo not drawn)
[1]
  T/C: 90 % of control
[2]
  T/C: 90 % of control

## Nc1nc(N)c2c(n1)NCN(OCc1c(Cl)cccc1Cl)C2
endpoint: mean survival time, dose: 0.75 mg/kg/injection, schedule: Q01DX009 (ip), vehicle: water
  T/C: 96 % of control
endpoint: mean survival time, dose: 1.5 mg/kg/injection, schedule: Q01DX009 (ip), vehicle: water
  T/C: 100 % of control
endpoint: mean survival time, dose: 3.0 mg/kg/injection, schedule: Q01DX009 (ip), vehicle: water
  T/C: 102 % of control
endpoint: mean survival time, dose: 6.0 mg/kg/injection, schedule: Q01DX009 (ip), vehicle: water
  T/C: 102 % of control
endpoint: mean survival time, dose: 12.0 mg/kg/injection, schedule: Q01DX009 (ip), vehicle: water
  T/C: 104 % of control
endpoint: mean survival time, dose: 24.0 mg/kg/injection, schedule: Q01DX009 (ip), vehicle: water
  T/C: 100 % of control

## COc1cc(NC(=O)CC(C)=O)cc(OC)c1OC
endpoint: mean survival time, dose: 100.0 mg/kg/injection, schedule: Q01DX009 (ip), vehicle: saline with Tween-80
  T/C: 100 % of control
endpoint: mean survival time, dose: 100.0 mg/kg/injection, schedule: Q04DX003 (ip), vehicle: saline with Tween-80
  T/C: 102 % of control
endpoint: mean survival time, dose: 200.0 mg/kg/injection, schedule: Q01DX009 (ip), vehicle: saline with Tween-80
  T/C: 100 % of control
[1]
  T/C: 96 % of control
endpoint: mean survival time, dose: 400.0 mg/kg/injection, schedule: Q01DX009 (ip), vehicle: saline with Tween-80
  T/C: 101 % of control
[2]
  T/C: 96 % of control
